Results from ChEMBL document CHEMBL1201862, “PubChem BioAssay data set” (2004).
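These data come from cells grown in 96-well plates and exposed to compound for 48 hours at five concentrations. GI50 marks 50% less growth.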 Activity calls are given as the source filed them. No stated cut-off is given here; in the data, active = GI50 up to about 1.1 µM and inactive = higher.

Tests used:
Assay in all cases: inhibition of tumour cell growth, NCI panel, 48 h
786-0 = tested on: 786-0
A498 = tested on: A498
A549 = tested on: A549
ACHN = tested on: ACHN
BT-549 = tested on: BT-549
CAKI-1 = tested on: CAKI-1
CCRF-CEM = tested on: CCRF-CEM
COLO 205 = tested on: COLO 205
DU-145 = tested on: DU-145
EKVX = tested on: EKVX
HCC 2998 = tested on: HCC 2998
HCT-116 = tested on: HCT-116
HCT-15 = tested on: HCT-15
HL-60 = tested on: HL-60
HOP-62 = tested on: HOP-62
HOP-92 = tested on: HOP-92
HT-29 = tested on: HT-29
Hs-578T = tested on: Hs-578T
IGROV-1 = tested on: IGROV-1
K562 = tested on: K562
KM12 = tested on: KM12
LOX IMVI = tested on: LOX IMVI
M14 = tested on: M14
MCF7 = tested on: MCF7
MDA-MB-231 = tested on: MDA-MB-231
MDA-MB-435 = tested on: MDA-MB-435
MDA-N = tested on: MDA-N
MOLT-4 = tested on: MOLT-4
NCI-H460 = tested on: NCI-H460
NCI/ADR-RES = tested on: NCI/ADR-RES
OVCAR-3 = tested on: OVCAR-3
OVCAR-4 = tested on: OVCAR-4
OVCAR-5 = tested on: OVCAR-5
OVCAR-8 = tested on: OVCAR-8
PC-3 = tested on: PC-3
RPMI-8226 = tested on: RPMI-8226
SF-268 = tested on: SF-268
SF-295 = tested on: SF-295
SF-539 = tested on: SF-539
SK-MEL-28 = tested on: SK-MEL-28
SK-MEL-2 = tested on: SK-MEL-2
SK-MEL-5 = tested on: SK-MEL-5
SK-OV-3 = tested on: SK-OV-3
SN12C = tested on: SN12C
SNB-19 = tested on: SNB-19
SNB-75 = tested on: SNB-75
SR = tested on: SR
SW-620 = tested on: SW-620
T47D = tested on: T47D
TK-10 = tested on: TK-10
U-251 = tested on: U-251
UACC-257 = tested on: UACC-257
UACC-62 = tested on: UACC-62
UO-31 = tested on: UO-31
Malme-3M = tested on: Malme-3M
NCI-H23 = tested on: NCI-H23
NCI-H522 = tested on: NCI-H522
RXF 393 = tested on: RXF 393

O=C(c1ccccc1)c1ccc(N2C(=O)/C(=C/c3ccccc3S)N=C2c2ccccc2)c(N2C(=O)/C(=C/c3ccccc3S)N=C2c2ccccc2)c1
GI50 (786-0): > 100 µM (inactive)
GI50 (A498): 60.7 µM (inactive)
GI50 (A549): 33.2 µM (inactive)
GI50 (ACHN): 60.4 µM (inactive)
GI50 (BT-549): 49.3 µM (inactive)
GI50 (CAKI-1): > 100 µM (inactive)
GI50 (CCRF-CEM): 22.2 µM (inactive)
GI50 (COLO 205): 60.1 µM (inactive)
GI50 (DU-145): 59 µM (inactive)
GI50 (EKVX): > 100 µM (inactive)
GI50 (HCC 2998): 35.7 µM (inactive)
GI50 (HCT-116): 66.4 µM (inactive)
GI50 (HCT-15): 53.3 µM
GI50 (HL-60): 11.8 µM (inactive)
GI50 (HOP-62): 40.7 µM (inactive)
GI50 (HOP-92): > 100 µM (inactive)
GI50 (HT-29): 86.5 µM (inactive)
GI50 (Hs-578T): 35 µM (inactive)
GI50 (IGROV-1): 46.9 µM (inactive)
GI50 (K562): 48.9 µM (inactive)
GI50 (KM12): 33.3 µM (inactive)
GI50 (LOX IMVI): 24.9 µM (inactive)
GI50 (M14): 38.2 µM (inactive)
GI50 (MCF7): 45.6 µM (inactive)
GI50 (MDA-MB-231): > 100 µM (inactive)
GI50 (MDA-MB-435): 19.6 µM (inactive)
GI50 (MDA-N): 36.5 µM (inactive)
GI50 (MOLT-4): 21.4 µM (inactive)
GI50 (NCI-H460): 47.6 µM (inactive)
GI50 (NCI/ADR-RES): 32.4 µM (inactive)
GI50 (OVCAR-3): 20.1 µM (inactive)
GI50 (OVCAR-4): 38.3 µM (inactive)
GI50 (OVCAR-5): > 100 µM (inactive)
GI50 (OVCAR-8): 27.8 µM (inactive)
GI50 (PC-3): 42.6 µM (inactive)
GI50 (RPMI-8226): 21.9 µM (inactive)
GI50 (SF-268): 39.9 µM (inactive)
GI50 (SF-295): 46.6 µM (inactive)
GI50 (SF-539): 21.3 µM (inactive)
GI50 (SK-MEL-28): > 100 µM (inactive)
GI50 (SK-MEL-2): 22.7 µM (inactive)
GI50 (SK-MEL-5): 29.4 µM (inactive)
GI50 (SK-OV-3): > 100 µM (inactive)
GI50 (SN12C): > 100 µM (inactive)
GI50 (SNB-19): 41.5 µM (inactive)
GI50 (SNB-75): 21.2 µM (inactive)
GI50 (SR): 30.5 µM (inactive)
GI50 (SW-620): 43.2 µM (inactive)
GI50 (T47D): 43.3 µM (inactive)
GI50 (TK-10): > 100 µM (inactive)
GI50 (U-251): 25.2 µM (inactive)
GI50 (UACC-257): > 100 µM (inactive)
GI50 (UACC-62): 49.4 µM (inactive)
GI50 (UO-31): 84.5 µM (inactive)

Cc1cc(C)n(CN(Cn2nc(C)cc2C)c2ccc(N(Cn3nc(C)cc3C)Cn3nc(C)cc3C)cc2)n1
GI50 (786-0): 19.3 µM (inactive)
GI50 (A498): 22.2 µM (inactive)
GI50 (A549): 28 µM (inactive)
GI50 (ACHN): 17.3 µM (inactive)
GI50 (BT-549): 19.2 µM (inactive)
GI50 (CAKI-1): 26.1 µM (inactive)
GI50 (CCRF-CEM): 14.4 µM (inactive)
GI50 (COLO 205): 17.7 µM (inactive)
GI50 (DU-145): 25.9 µM (inactive)
GI50 (EKVX): 26.9 µM (inactive)
GI50 (HCT-116): 17.5 µM (inactive)
GI50 (HCT-15): 21.5 µM
GI50 (HL-60): 30.5 µM (inactive)
GI50 (HOP-62): 25.8 µM (inactive)
GI50 (HOP-92): 23.9 µM (inactive)
GI50 (HT-29): 21.9 µM (inactive)
GI50 (Hs-578T): 18.2 µM (inactive)
GI50 (IGROV-1): 31.6 µM (inactive)
GI50 (K562): 18.7 µM (inactive)
GI50 (KM12): 24.2 µM (inactive)
GI50 (M14): 20 µM (inactive)
GI50 (MCF7): 20.3 µM (inactive)
GI50 (MDA-MB-231): 45.7 µM (inactive)
GI50 (MDA-MB-435): 17.7 µM (inactive)
GI50 (MDA-N): 18.9 µM (inactive)
GI50 (MOLT-4): 28 µM (inactive)
GI50 (Malme-3M): 22.3 µM (inactive)
GI50 (NCI-H23): 21.2 µM (inactive)
GI50 (NCI-H460): 24.6 µM (inactive)
GI50 (NCI-H522): 20.2 µM (inactive)
GI50 (NCI/ADR-RES): 19.1 µM (inactive)
GI50 (OVCAR-3): 25.5 µM (inactive)
GI50 (OVCAR-4): 17.2 µM (inactive)
GI50 (OVCAR-5): 24.7 µM (inactive)
GI50 (OVCAR-8): 27.4 µM (inactive)
GI50 (PC-3): 23.7 µM (inactive)
GI50 (RPMI-8226): 13.4 µM (inactive)
GI50 (RXF 393): 20 µM (inactive)
GI50 (SF-268): 24.8 µM (inactive)
GI50 (SF-295): 30.8 µM (inactive)
GI50 (SF-539): 18.1 µM (inactive)
GI50 (SK-MEL-28): 18.7 µM (inactive)
GI50 (SK-MEL-2): 23.1 µM (inactive)
GI50 (SK-MEL-5): 16.5 µM (inactive)
GI50 (SK-OV-3): 25.9 µM (inactive)
GI50 (SN12C): 27.4 µM (inactive)
GI50 (SNB-19): 24 µM (inactive)
GI50 (SR): 30.9 µM (inactive)
GI50 (SW-620): 16.6 µM (inactive)
GI50 (T47D): 23.8 µM (inactive)
GI50 (TK-10): 29.9 µM (inactive)
GI50 (U-251): 27.9 µM (inactive)
GI50 (UACC-257): 18.6 µM (inactive)
GI50 (UACC-62): 24.2 µM (inactive)
GI50 (UO-31): 28.4 µM (inactive)
